Laboratory results from patent US12054498B2, “Heteroaromatic macrocyclic ether chemotherapeutic agents” (Nuvalent, Inc., priority 2020, dated 2024).
pIC50, pKi: −log10 of the molar value.

Legend:
[1] = biological target: T1, Ba/F3 cells CD74-ROS1 G2032R (Homo sapiens, UniProt P08922, G2032R); test: Ba/F3 cell proliferation assay, CD74-ROS1 G2032R; assay type: cell-based; settings: 72 hours, CellTiter-Glo
T1 construct: fusion of the C-terminus of ROS1 with the N-terminus of various partner proteins; host or cells: Ba/F3 (RIKEN), retroviral pMSCV-puro; the other entry of the earlier key: CD74 (P04233, HLA class II histocompatibility antigen gamma chain)
Experimental: (§1) The virus was used to infect Ba/F3 cells (RIKEN) at multiplicity of infection=1 for 1 day. Infected cells were rescued in media (RPMI-1640 with 10% fetal bovine serum and 1% streptomycin and penicillin) supplemented with mouse IL-3 (10 ng/mL) for 2 days, and stable cell lines were selected by IL-3 withdrawal and puromycin (0.8 μg/mL) for 7 days. Monoclones were selected by single-cell dilution in IL-3-free medium containing puromycin (0.8 μg/mL).
(§2) Cell Proliferation Assay Stable cells were plated at 1,000 cells/well (40 μL) in a 384-well plate for 1 day.
(§3) Test compounds (40 nL) were then added in a 3-fold dilution series using the TECAN EVO200 liquid handler and incubated for 72 hours. Plates were equilibrated at room temperature for 15 minutes followed by addition of 40 μL CellTiter-Glo reagent (Promega).
(§4) Luminescence was measured on a plate reader. Half-maximal inhibitory concentration (IC50) was calculated from percent inhibition and inhibitor concentration using four-parameter logistic regression. […] (nd=not determined).

ALK L1196M/G1202R = biological target: T2, ALK L1196M/G1202R (Homo sapiens, UniProt Q9UM73, G1202R/L1196M); test: Biochemical kinase assay, ALK L1196M/G1202R kinase domain; settings: apparent inhibitory constant, Morrison equation; ATP 2 mM in substrate solution; read-out: ALK-L1196M-G1202R Ki^app
T2 construct: purchased SignalChem A19-12NG
Experimental: (§5) First, 250 nL of compound dissolved in DMSO (100-fold of the desired concentration) was dispensed into a 384-well plate. A 12.5 μL substrate solution containing ATP (2 mM) and fluorogenic phosphorylation substrate AQT0101 (26 μM for ALK and ROS1, AssayQuant) or AQT0104 (26 μM for TRKA, AssayQuant) in buffer (50 mM HEPES pH 7.5, 0.01% Brij-35, 0.5 mM EGTA, 10 mM MgCl2) was added and mixed thoroughly. Then, a 12.5 μL kinase solution containing ALK-wt (1.5 nM, Carna, 08-518), ALK ALK L1196M/G1202R (3 nM, SignalChem, A19-12NG), ROS1-wt (0.6 nM, Carna, 08-163), ROS1-G2032R (0.5 nM, SignalChem, R14-12BG), or TRKA-wt (1 nM, BPS Bio, 40280) kinase domains in buffer (50 nM HEPES pH 7.5, 0.01% Brij-35, 2% glycerol, 0.4 mg/mL BSA, 0.5 mM EGTA, and 10 mM MgCl2) was added and mixed thoroughly. The plate was sealed and read by SpectraMax Paradigm at λ=485 nm every 2 minutes for 120 minutes at 30° C. Initial rates of reaction (v) were calculated from the change in fluorescence intensity over time during the initial, linear portion of the reaction. Finally, apparent inhibitory constants (Ki^app) were determined from regression of v and I (inhibitor concentration) to Morrison Equation (E=enzyme concentration): […]

[2] = biological target: T3, Ba/F3 cells EML4-ALK L1196M/G1202R (variant 1) (Homo sapiens, UniProt Q9UM73, G1202R/L1196M); test: Ba/F3 cell proliferation assay, EML4-ALK L1196M/G1202R (variant 1); assay type: cell-based; settings: 72 hours, CellTiter-Glo
T3 construct: echinoderm microtubule-associated protein-like 4 (EML4) gene and the ALK tyrosine kinase domain; host or cells: Ba/F3 (RIKEN), retroviral pMSCV-puro; the other entry of the earlier key: EML4 (Q9HC35, Echinoderm microtubule-associated protein-like 4)
Excerpt: (§6) Genes encoding CD74-ROS1 wild-type (wt), CD74-ROS1 G2032R, CD74-ROS1 S1986F, CD74-ROS1 L2026M, CD74-ROS1 D2033N, EML4-ALK wt (variant 1), EML4-ALK G1202R (variant 1), EML4-ALK L1196M/G1202R (variant 1), EML4-ALK G1202R/G1269A (variant 1), EML4-ALK G1202R/L1198F (variant 1), and TPM3-TRKA were synthesized at GeneRay, cloned into the retroviral construct pMSCV-puro (Biovector), and packaged into retroviral particles. The virus was used to infect Ba/F3 cells (RIKEN) at multiplicity of infection=1 for 1 day. Infected cells were rescued in media (RPMI-1640 with 10% fetal bovine serum and 1% streptomycin and penicillin) supplemented with mouse IL-3 (10 ng/mL) for 2 days, and stable cell lines were selected by IL-3 withdrawal and puromycin (0.8 μg/mL) for 7 days. Monoclones were selected by single-cell dilution in IL-3-free medium containing puromycin (0.8 μg/mL). Transformation of desired genes was confirmed by Sanger sequencing and western blot using the following antibodies: ROS1 (CST #3287), ALK (CST #3633), and pan-TRK (Abcam #76291).
as §2, §3, §4

[3] = tested on: TPM3-NTRK1-wt IC50 / primary target IC50 (e.g. CD74-ROS1-wt); test: TRKA selectivity in Ba/F3 cells (TRKA potency divided by primary target potency); assay type: cell-based; settings: for TPM3-NTRK1-wt/CD74-ROS1-G2032R selectivity ratio: TRKA potency / CD74-ROS1-G2032R potency; for TPM3-NTRK1-wt/EML4-ALK-L1196M-G1202R selectivity ratio: TRKA potency / EML4-ALK-L1196M-G1202R potency
Experimental: TRKA selectivity was calculated by dividing a compound's TRKA potency by its primary target potency (e.g. TPM3-NTRK1-wt IC50/CD74-ROS1-wt IC50). Compound selectivity can be interpreted by binning ratio values: bin A for very high selectivity, ratio >30-fold; bin B for high selectivity, ratio >10-fold; bin C for moderate selectivity, ratio ≥1; and bin D for low selectivity, ratio <1. […] (nd=not determined).

ALK-wt = biological target: T4, ALK-wt (Homo sapiens, UniProt Q9UM73); test: Biochemical kinase assay, ALK-wt kinase domain; settings: apparent inhibitory constant, Morrison equation; ATP 2 mM in substrate solution; read-out: ALK-wt Ki^app
T4 construct: purchased Carna 08-518
Experimental: as §5

TRKA-wt = biological target: T5, TRKA-wt (Homo sapiens, UniProt P04629); test: Biochemical kinase assay, TRKA-wt kinase domain; settings: apparent inhibitory constant, Morrison equation; ATP 2 mM in substrate solution; read-out: TRKA-wt Ki^app
T5 construct: or TRKA-wt (1 nM, BPS Bio, 40280) kinase domains in buffer; purchased BPS Bio 40280
Experimental: as §5

ROS1-wt = biological target: T6, ROS1-wt (Homo sapiens, UniProt P08922); test: Biochemical kinase assay, ROS1-wt kinase domain; settings: apparent inhibitory constant, Morrison equation; ATP 2 mM in substrate solution; read-out: ROS1-wt Ki^app
T6 construct: purchased Carna 08-163
Experimental: as §5, with “Then, a 12.5 μL kinase solution containing ALK-wt (1.5 nM, Carna, 08-518), ALK ALK L1196M/G1202R (3 nM, SignalChem, A19-12NG), ROS1-wt (0.6 nM, Carna, 08-163), ROS1-G2032R (0.5 nM, SignalChem, R14-12BG), or TRKA-wt (1 nM, BPS Bio, 40280) kinase domains in buffer (50 nM HEPES pH 7.5, 0.01% Brij-35, 2% glycerol, 0.4 mg/mL BSA, 0.5 mM EGTA, and 10 mM MgCl2) was added and mixed thoroughly.” left out

Ba/F3 cells TPM3-TRKA = biological target: T7, Ba/F3 cells TPM3-TRKA (Homo sapiens, UniProt P04629); test: Ba/F3 cell proliferation assay, TPM3-TRKA; assay type: cell-based; settings: 72 hours, CellTiter-Glo, read-out: TPM3-NTRK1-wt IC50
T7 construct: host or cells: Ba/F3 (RIKEN), retroviral pMSCV-puro; the other entry of the earlier key: TPM3 (P06753, Tropomyosin alpha-3 chain)
Excerpt: as §6, §2, §3, §4

ROS1-G2032R = biological target: T8, ROS1-G2032R (Homo sapiens, UniProt P08922, G2032R); test: Biochemical kinase assay, ROS1-G2032R kinase domain; settings: apparent inhibitory constant, Morrison equation; ATP 2 mM in substrate solution; read-out: ROS1-G2032R Ki^app
T8 construct: purchased SignalChem R14-12BG
Experimental: as §5, with “Then, a 12.5 μL kinase solution containing ALK-wt (1.5 nM, Carna, 08-518), ALK ALK L1196M/G1202R (3 nM, SignalChem, A19-12NG), ROS1-wt (0.6 nM, Carna, 08-163), ROS1-G2032R (0.5 nM, SignalChem, R14-12BG), or TRKA-wt (1 nM, BPS Bio, 40280) kinase domains in buffer (50 nM HEPES pH 7.5, 0.01% Brij-35, 2% glycerol, 0.4 mg/mL BSA, 0.5 mM EGTA, and 10 mM MgCl2) was added and mixed thoroughly.” left out

[4] = biological target: T9, Ba/F3 cells EML4-ALK wt (variant 1) (Homo sapiens, UniProt Q9UM73); test: Ba/F3 cell proliferation assay, EML4-ALK wt (variant 1); assay type: cell-based; settings: 72 hours, CellTiter-Glo
T9 construct: echinoderm microtubule-associated protein-like 4 (EML4) gene and the ALK tyrosine kinase domain; host or cells: Ba/F3 (RIKEN), retroviral pMSCV-puro; the other entry of the earlier key: EML4 (Q9HC35, Echinoderm microtubule-associated protein-like 4)
Excerpt: as §6, §2, §3, §4

[5] = biological target: T10, Ba/F3 cells CD74-ROS1 wild-type (wt) (Homo sapiens, UniProt P08922); test: Ba/F3 cell proliferation assay, CD74-ROS1 wild-type; assay type: cell-based; settings: 72 hours, CellTiter-Glo
T10 construct: fusion of the C-terminus of ROS1 with the N-terminus of various partner proteins; host or cells: Ba/F3 (RIKEN), retroviral pMSCV-puro; the other entry of the earlier key: CD74 (P04233, HLA class II histocompatibility antigen gamma chain)
Experimental: as §1, §2, §3, §4

T3 sequence (Q9UM73 with tags, fused parts or gaps L1196M/G1202R): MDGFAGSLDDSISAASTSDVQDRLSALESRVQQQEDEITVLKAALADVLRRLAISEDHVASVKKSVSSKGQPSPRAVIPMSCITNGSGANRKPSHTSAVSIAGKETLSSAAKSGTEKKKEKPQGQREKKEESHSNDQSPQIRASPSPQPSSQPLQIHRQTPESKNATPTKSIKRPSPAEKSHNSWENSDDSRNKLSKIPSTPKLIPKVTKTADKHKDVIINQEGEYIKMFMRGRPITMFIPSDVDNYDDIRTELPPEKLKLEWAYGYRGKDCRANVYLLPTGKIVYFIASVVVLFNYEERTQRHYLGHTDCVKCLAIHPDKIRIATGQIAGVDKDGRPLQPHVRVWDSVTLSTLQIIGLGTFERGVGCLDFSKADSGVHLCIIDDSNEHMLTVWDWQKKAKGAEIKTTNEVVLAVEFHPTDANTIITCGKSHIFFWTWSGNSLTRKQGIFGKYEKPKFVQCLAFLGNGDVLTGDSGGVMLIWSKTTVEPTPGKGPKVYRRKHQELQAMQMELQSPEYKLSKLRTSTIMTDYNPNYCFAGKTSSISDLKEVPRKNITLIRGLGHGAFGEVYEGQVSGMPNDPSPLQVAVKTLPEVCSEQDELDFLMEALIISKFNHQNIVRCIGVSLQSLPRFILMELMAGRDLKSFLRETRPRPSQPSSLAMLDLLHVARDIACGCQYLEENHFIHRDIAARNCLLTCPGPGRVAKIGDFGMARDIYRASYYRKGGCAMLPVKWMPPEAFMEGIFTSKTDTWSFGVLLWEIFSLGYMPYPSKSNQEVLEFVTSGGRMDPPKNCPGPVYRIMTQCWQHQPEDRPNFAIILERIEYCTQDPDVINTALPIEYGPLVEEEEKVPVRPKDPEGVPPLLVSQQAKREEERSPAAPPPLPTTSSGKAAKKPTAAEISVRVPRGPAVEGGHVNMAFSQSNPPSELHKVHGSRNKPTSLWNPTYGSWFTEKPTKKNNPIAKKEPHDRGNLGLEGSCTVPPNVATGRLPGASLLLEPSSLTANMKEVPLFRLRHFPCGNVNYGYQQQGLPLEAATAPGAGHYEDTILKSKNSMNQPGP
T4 sequence (Q9UM73 1116-1392 limits assumed): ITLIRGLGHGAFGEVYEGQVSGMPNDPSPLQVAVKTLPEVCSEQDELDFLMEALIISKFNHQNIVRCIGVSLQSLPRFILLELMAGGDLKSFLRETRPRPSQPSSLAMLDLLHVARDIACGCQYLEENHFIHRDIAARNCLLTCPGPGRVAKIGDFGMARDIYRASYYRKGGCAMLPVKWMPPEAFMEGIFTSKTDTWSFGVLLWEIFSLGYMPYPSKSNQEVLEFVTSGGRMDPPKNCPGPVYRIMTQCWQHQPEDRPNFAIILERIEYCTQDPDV
T7 sequence (P04629 510-796 limits assumed): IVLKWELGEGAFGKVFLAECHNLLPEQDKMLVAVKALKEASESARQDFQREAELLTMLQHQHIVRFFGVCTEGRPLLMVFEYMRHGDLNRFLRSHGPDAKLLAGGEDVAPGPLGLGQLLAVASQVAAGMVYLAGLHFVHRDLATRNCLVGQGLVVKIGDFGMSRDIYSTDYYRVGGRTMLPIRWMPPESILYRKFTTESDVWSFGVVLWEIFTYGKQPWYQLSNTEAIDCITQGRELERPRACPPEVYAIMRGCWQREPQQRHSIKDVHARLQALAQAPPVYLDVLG
T2 sequence (Q9UM73 1116-1392 L1196M/G1202R limits assumed): as the sequence (Q9UM73 1116-1392 limits assumed) above, with L81M, G87R counted along it
T5 sequence (P04629 510-781 limits assumed): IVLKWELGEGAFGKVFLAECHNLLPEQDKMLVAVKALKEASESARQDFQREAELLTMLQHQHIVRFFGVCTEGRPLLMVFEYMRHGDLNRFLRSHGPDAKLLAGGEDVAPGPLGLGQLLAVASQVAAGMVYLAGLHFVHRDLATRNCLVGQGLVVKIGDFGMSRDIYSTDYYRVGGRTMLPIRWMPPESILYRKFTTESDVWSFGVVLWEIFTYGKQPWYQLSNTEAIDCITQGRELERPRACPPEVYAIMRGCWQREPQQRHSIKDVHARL
T1 sequence (P08922 1883-2347 G2032R limits assumed): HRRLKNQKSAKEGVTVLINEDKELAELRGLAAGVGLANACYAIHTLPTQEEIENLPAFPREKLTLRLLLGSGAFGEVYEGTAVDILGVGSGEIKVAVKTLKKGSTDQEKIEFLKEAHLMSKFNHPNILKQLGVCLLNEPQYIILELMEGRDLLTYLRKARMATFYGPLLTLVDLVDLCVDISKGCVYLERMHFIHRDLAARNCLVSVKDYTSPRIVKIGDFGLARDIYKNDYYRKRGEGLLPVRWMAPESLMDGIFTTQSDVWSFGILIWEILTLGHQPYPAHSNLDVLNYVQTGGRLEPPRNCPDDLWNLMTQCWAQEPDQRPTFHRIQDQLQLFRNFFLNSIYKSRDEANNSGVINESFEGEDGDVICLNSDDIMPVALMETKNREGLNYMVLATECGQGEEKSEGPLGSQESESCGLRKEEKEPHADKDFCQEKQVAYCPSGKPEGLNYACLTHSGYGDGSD
T8 sequence (P08922 1945-2222 G2032R limits assumed): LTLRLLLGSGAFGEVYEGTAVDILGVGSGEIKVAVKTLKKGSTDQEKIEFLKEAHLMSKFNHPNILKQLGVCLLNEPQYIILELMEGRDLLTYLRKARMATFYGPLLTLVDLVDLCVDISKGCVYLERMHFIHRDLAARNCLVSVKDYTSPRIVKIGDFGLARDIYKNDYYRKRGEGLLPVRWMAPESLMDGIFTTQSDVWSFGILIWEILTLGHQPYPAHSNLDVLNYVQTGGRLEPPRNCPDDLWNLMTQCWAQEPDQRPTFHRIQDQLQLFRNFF
T9 sequence (Q9UM73 with tags, fused parts or gaps): as the sequence (Q9UM73 with tags, fused parts or gaps L1196M/G1202R) above, with M635L, R641G counted along it
T6 sequence (P08922 1945-2222 limits assumed): as the sequence (P08922 1945-2222 G2032R limits assumed) above, with R88G counted along it
T10 sequence (P08922 1883-2347 limits assumed): as the sequence (P08922 1883-2347 G2032R limits assumed) above, with R150G counted along it

| pIC50 [1] | pKi (ALK L1196M/G1202R) | pIC50 [2] | pKi (ALK-wt) | pKi (TRKA-wt) | pKi (ROS1-wt) | pIC50 (Ba/F3 cells TPM3-TRKA) | pKi (ROS1-G2032R) | pIC50 [4] | pIC50 [5] | Compound | TPM3-NTRK1-wt/CD74-ROS1-G2032R selectivity ratio [3] | TPM3-NTRK1-wt/EML4-ALK-L1196M-G1202R selectivity ratio [3] | TPM3-NTRK1-wt/CD74-ROS1-wt selectivity ratio ([3]; TRKA potency / CD74-ROS1-wt potency) | TPM3-NTRK1-wt/EML4-ALK-wt selectivity ratio ([3]; TRKA potency / EML4-ALK-wt potency) |
| --- | --- | --- | --- | --- | --- | --- | --- | --- | --- | --- | --- | --- | --- | --- |
| 7.30 to 10.00 | > 7.30 | 6.30 to 7.30 | > 7.30 | < 6.30 | > 7.30 | < 6.30 | > 7.30 |  |  | CCn1ncc2c1-c1cnc(N)c(c1)O[C@H](C)c1cc(F)ccc1-c1c(F)cnn1C2 [Example 8, (19R)-3-ethyl-11,16-difluoro-19-methyl-20-oxa-3,4,8,9,23-pentaazapentacyclo[19.3.1.0^2,^6.0^8,^12.0^13,^18]pentacosa-1(24),2(6),4,9,11,13,15,17,21(25),22-decaen-22-amine] | A (bin A for very high selectivity, ratio >30-fold) | C (bin C for moderate selectivity, ratio ≥1) |  |  |
| 7.30 to 10.00 | > 7.30 | 6.30 to 7.30 | > 7.30 | 6.30 to 7.30 |  | 6.30 to 7.30 | > 7.30 | 7.30 to 10.00 | 7.30 to 10.00 | CCn1ncc2c1-c1cnc(N)c(c1)O[C@H](C)c1cc(F)ccc1-c1cc(OC)nn1C2 [Example 89, (19R)-3-ethyl-16-fluoro-10-methoxy-19-methyl-20-oxa-3,4,8,9,23-pentaazapentacyclo[19.3.1.0^2,^6.0^8,^12.0^13,^18]pentacosa 1(24),2(6),4,9,11,13,15,17,21(25),22-decaen-22-amine] | A (bin A for very high selectivity, ratio >30-fold) | D (bin D for low selectivity, ratio <1) | A (bin A for very high selectivity, ratio >30-fold) | B (bin B for high selectivity, ratio >10-fold) |
|  | > 7.30 | 7.30 to 10.00 | > 7.30 | 6.30 to 7.30 |  | 6.30 to 7.30 |  | 7.30 to 10.00 |  | CCn1ncc2c1-c1cnc(N)c(c1)O[C@H](C)c1cc(F)ccc1-c1nn(C)nc1C2 [Example 5, (19R)-3-ethyl-16-fluoro-10,19-dimethyl-20-oxa-3,4,9,10,11,23-hexaazapentacyclo[19.3.1.0^2,^6.0^8,^12.0^13,^18]pentacosa-1(24),2(6),4.8,11,13,15,17,21(25),22-decaen-22-amine] |  |  |  |  |
